Source: patent US12466832B2, “Monohydrate and crystalline forms of 6-[(3S,4S)-4-methyl-1-(pyrimidin-2-ylmethyl)pyrrolidin-3-yl]-3-tetrahydropyran-4-yl-7H-imidazo[1,5-a]pyrazin-8-one” (Cardurion Pharmaceuticals, Inc., priority 2018, dated 2025)
In brackets after ≈: the same amount, converted by molar mass. Entries after “also recorded” stand apart in the source; their conditions may differ. One block for each compound: values may come before it.

What was measured:
Format in all cases: physicochemical
[1] = Gravimetric Vapour Sorption (GVS)
Experimental: Sorption isotherms were obtained using a SMS DVS Intrinsic moisture sorption analyzer, controlled by DVS Intrinsic Control software. The sample temperature was maintained at 25° C. by the instrument controls. The humidity was controlled by mixing streams of dry and wet nitrogen, with a total flow rate of 200 ml/min. The relative humidity was measured by a calibrated Rotronic probe (dynamic range of 1.0-100% RH), located near the sample. The weight change, (mass relaxation) of the sample as a function of % RH was constantly monitored by a microbalance (accuracy ±0.005 mg).
Typically, 5-30 mg of sample was placed in a tared mesh stainless steel basket under ambient conditions. The sample was loaded and unloaded at 40% RH and 25° C. (typical room conditions). A moisture sorption isotherm was performed as outlined below (2 scans per complete cycle). The standard isotherm was performed at 25° C. at 10% RH intervals over a 0-90% RH range. Typically, a double cycle (4 scans) was carried out. Data analysis was carried out within Microsoft Excel using the DVS Analysis Suite.
The sample was recovered after completion of the isotherm and re-analyzed by XRPD.

[2] = Drying investigation of the two hydrates (vacuum oven, XRPD and TGA)
Experimental: Procedure: MH1 and MH2 were placed in a vacuum oven at 50° C. and RT for 24 h. The samples were then analysed by TGA and XRPD immediately after removal and after 4 hours standing under ambient conditions.

[3] = Solubility repeat at pH 1.2 (reverse addition); settings: pH 1.2 buffered media, pH maintained at 1.2, reverse addition
Experimental: Procedure: pH 1.2 buffered media (0.4 ml) was added to two separate 7 ml vials. For each compound, material was added in portions to the pH 1.2 media. After each addition of compound, the vial was vortex mixed and the pH and appearance was recorded. The samples were adjusted to pH 1.2 with 1M HCl to within 0.05 of the desired pH unit. This was repeated until no further material was available (˜400 mg for each form, which would give a maximum concentration of around 1000 mg/ml if no adjustment was required).

[4] = Variable temperature XRPD (VT XRPD)
Experimental: For variable temperature (VT) experiments the samples were prepared and analysed in an Anton Paar chromed sample holder. A heating/cooling rate of 10° C./min was used with a 2 min isothermal hold before the measurement started. The measurement parameters are as per the standard screening data collection method (detailed above). Measurements were taken at the following temperatures: 25, 50, 75, 100, 160, and 25° C. The sample was then reanalyzed by XRPD after 1 h to check for complete rehydration.
MH1 was analysed at 25, 50, 75, 100, 160 and 25° C. (10° C./min heating rate and a 2 min wait before the measurement started) on the Empyrean. The sample was then reanalysed by XRPD after 10 and 20 min to check for rehydration.
(§1) Procedure: A second batch of MH2 material was prepared using the same procedure. This sample was then analysed by VTXRPD and by XRPD under vacuum.

[5] = Thermodynamic aqueous solubility; settings: thermodynamic from solid, water, 25° C.
Experimental: Aqueous solubility was determined by suspending sufficient compound in relevant media to give a maximum final concentration of ≥200 mg/ml of the parent freeform of the compound. The suspension was equilibrated at 25° C., on a Heidolph plate shaker set to 750 rpm for 24 hours. The pH of the saturated solution was then measured and the suspension filtered through a glass fibre C filter (particle retention 1.2 μm) and diluted appropriately. Quantitation was by HPLC with reference to a standard solution of approximately 0.15 mg/ml in DMSO. Different volumes of the standard, diluted and undiluted sample solutions were injected.
The solubility was calculated using the peak areas determined by integration of the peak found at the same retention time as the principal peak in the standard injection.
Analysis was performed on an Agilent HP1100 series system equipped with a diode array detector and using ChemStation software.

XRPD under vacuum = assay: XRPD under vacuum
Experimental: For vacuum experiments the samples were prepared and analysed in an Anton Paar chromed sample holder. The measurement parameters are as per the standard screening data collection method (detailed above), at 25° C. with no vacuum (I2). A vacuum of around 50 mbar was then applied and the sample measured every 5 min until the anhydrate pattern was obtained for three consecutive measurements (to ensure complete dehydration, up to sample I8). The vacuum was then released and the sample analysed every 5 min for 6 measurements (until sample I22). The sample was then reanalyzed by XRPD after 1 h to check for complete rehydration.
MH1 was analysed at 25° C. with no vacuum. A vacuum of around 50 mbar was then applied and the sample measured every 5 min until the anhydrate pattern was obtained for three consecutive measurements (to ensure complete dehydration). The vacuum was then released and the sample analysed every 5 min for 6 measurements before the front of the sample stage was removed.
as §1

[6] = pH profiling solubility experiments; settings: 25 °C, thermodynamic from solid
Experimental: Procedure: pH profiling solubility experiments were performed on MH1 and MH2. Solubility was determined in singlicate by suspending sufficient compound in relevant media (1.00 ml) to give a maximum final concentration as shown in the Table 17.
The suspensions were equilibrated at 25° C., on a Heidolph plate shaker set to 750 rpm for 24 hours. Samples were pH adjusted as required using 0.5M/1M HCl and 0.2M NaOH to within 0.1 of the desired pH unit (where possible). The pHs of the saturated solutions were measured (where applicable) and an appearance was recorded. The suspensions were filtered through a glass fibre C filter (particle retention […]) and diluted appropriately. Quantitation was by HPLC with reference to a standard solution of approximately 0.15 mg/ml in DMSO. Different volumes of the standard, diluted and undiluted sample solutions were injected. The solubility was calculated using the peak areas determined by integration of the peak found at the same retention time as the principal peak in the standard injection.

XRPD (T = 0, 50° C.) ([2]; vacuum oven 50° C. 24 h, immediately after removal): Matches MH1 and AH
TGA (T = 0, 50° C.) ([2]; vacuum oven 50° C. 24 h, immediately after removal, lost between 25 and 100° C.): 0.6% w/w lost between
TGA (T = 4 h, 50° C.) ([2]; vacuum oven 50° C. 24 h, then 4 hours ambient, lost between 25 and 100° C.): 1.9% w/w lost between
XRPD (T = 4 h, 50° C.) ([2]; vacuum oven 50° C. 24 h, then 4 hours at ambient conditions): Matches MH1
XRPD (T = 0, RT) ([2]; vacuum oven RT 24 h, immediately after removal): Matches MH1 and AH
TGA (T = 0, RT) ([2]; vacuum oven RT 24 h, immediately after removal, lost between 25 and 100° C.): 0.2% w/w lost between
TGA (T = 4 h, RT) ([2]; vacuum oven RT 24 h, then 4 hours ambient, lost between 25 and 100° C.): 1.9% w/w lost between
XRPD (T = 4 h, RT) ([2]; vacuum oven RT 24 h, then 4 hours at ambient conditions): Matches MH1
Solubility at pH 1.2 [3]: >161 mg/ml
Form by VT XRPD upon heating ([4]; 50° C.): mixture of MH2 and AH
Form by VT XRPD upon heating ([4]; 75° C.): complete conversion to AH
Form by VT XRPD after cooling back ([4]; re-cooled to 25° C.): completely transformed into MH1
solubility thermodynamic at 24 h [5]: 36.5 mg/mL (≈ 92.5 mM)
Final XRPD pattern after vacuum released (XRPD under vacuum; data collected for 55 minutes after release): mixture of AH and MH1
Form by XRPD on reanalysis (XRPD under vacuum; reanalyzed after 1 h): complete rehydration to MH 1
Time under vacuum to conversion to the anhydrate by XRPD (XRPD under vacuum; vacuum of around 50 mbar, 25° C.): 5 min
solubility at 24 h ([6]; pH 1.2 media, pH 1.2, simulated gastric fluid, media pH 1.2, 25° C., pH not maintained, final pH 5.02 (MH1-A), 6.63 (MH2-A)): > 275 mg/mL
solubility at 24 h ([6]; pH 4.0 media, pH 4, aqueous buffer, media pH 4.0, 25° C.): > 99 mg/mL
solubility at 24 h ([6]; pH 6.5 media, pH 6.5, aqueous buffer, media pH 6.5, 25° C.): > 147 mg/mL
solubility at 24 h ([6]; pH 7.5 media, pH 7.5, aqueous buffer, media pH 7.5, 25° C.): 58 mg/mL (≈ 147 mM)
SMILES: C[C@@H]1CN(Cc2ncccn2)C[C@H]1c1cn2c(C3CCOCC3)ncc2c(=O)[nH]1 [MH2, 6-[(3S,4S)-4-methyl-1-(pyrimidin-2-ylmethyl)pyrrolidin-3-yl]-3-tetrahydropyran-4-yl-7H-imidazo[1,5-a]pyrazin-8-one]
GVS first sorption cycle uptake ([1]; 40 to 90% RH, 25° C.): lack of uptake; also recorded: First sorption cycle from 40 to 90% RH, no uptake
XRPD post-GVS ([1]; solid form after GVS): rehydrated as MH1; also recorded: Crystalline - Matches MH1

Conversion under ambient conditions ([4]; after VT XRPD, standing at 25° C.): readily converts to MH1
Conversion under ambient conditions (XRPD under vacuum; after vacuum XRPD, ambient air): readily converts to MH1
SMILES: C[C@@H]1CN(Cc2ncccn2)C[C@H]1c1cn2c(C3CCOCC3)ncc2c(=O)[nH]1 [anhydrate, 6-[(3S,4S)-4-methyl-1-(pyrimidin-2-ylmethyl)pyrrolidin-3-yl]-3-tetrahydropyran-4-yl-7H-imidazo[1,5-a]pyrazin-8-one]
